In US20130344106A1, “Methods and Compositions for Improving Immune Response by a Nutraceutical Antioxidant” (priority 2008, published 2013):
“Also recorded” adds a separate entry of the source. Values belong to the compound of their own block, whether it stands above or below them.

Legend:
[1] = test system: BM-DCs from old mice; test: CHS response by adoptive transfer of DNBS-pulsed BM-DCs treated ex vivo; assay type: in vivo, mouse; settings: DNFB challenge of young recipients
Method: For sensitization (day 0), 0.5×10^6 DNBS-treated DCs were injected subcutaneously with 100 μL of saline into the flanks of recipient mice. Five days later, mice were challenged by means of DNFB application to the ear. Mice injected with the same number of unmodified DCs or mock treated and challenged with vehicle alone served as negative controls.

[2] = test system: OXA-treated BALB/c mice; settings: Särnstrand et al.; cited from earlier work
[3] = test system: BALB/c mice; settings: orally administered 1.6 g/kg, Senaldi et al.; cited from earlier work
[4] = test system: cellular proteins; settings: NAC at the time of TNCB sensitization; Bruchhausen et al.; cited from earlier work
[5] = test system: CD11c+ BM-DCs; test: MBB staining and flow cytometry of cellular thiol in BM-DCs; settings: P<0.05
[6] = test system: Nrf2; settings: old rats; cited from earlier work
[7] = test system: old female C57BL/6 (B6) mice; settings: SFN gavage
From the text: (§1) Young (2-4 months) and old (19-22 mouths) female C57BL/6 (B6) mice were obtained from the Jackson Laboratory and the National Institute of Aging colony (Bethesda, Md.), respectively. Nrf2^+/+ and nrf2^−/− mice, which were initially obtained from Dr. Y. Kan (Chan and Kan, Proc Natl Acad Sci USA, 96:1231-6 (1997)), were backcrossed onto a C57BL/6 background for 7 generations.
Oxazalone (OXA; 3%), dissolved in 100% ethanol, was applied on the shaved mouse abdomen on day 0. Control animals were exposed to vehicle alone. Six days after sensitization, mice were challenged on both sides of both ears by means of epicutaneous application of 20 μL of a 1% OXA solution (Gaspari and Katz, Current Protocols in immunology, John Wiley & Sons (Hoboken, N.J., 2003)). 2,4-Dinitro-1-fluambenzene (DNFB) sensitization was accomplished by the application of 0.5% of the chemical dissolved in 4:1 acetone/olive oil onto the shaved abdomen (days 0 and 1). On day 5, mice were challenged by means of epicutaneous application of 0.2% DNFB on both ears. Ear thickness was measured before and 24 and 48 hours after challenge by using a dial thickness gauge (Mitutoyo, Japan). Mice were killed 48 hours after challenge, and ear tissues were removed for RNA extraction and cytokine message expression, as well as for hematoxylin and eosin staining. […]

[8] = test system: IFN-γ mRNA; settings: old mice; SFN gavage; 48 hours after DNFB challenge
Method: (§2) Oxazalone (OXA; 3%), dissolved in 100% ethanol, was applied on the shaved mouse abdomen on day 0. Control animals were exposed to vehicle alone. Six days after sensitization, mice were challenged on both sides of both ears by means of epicutaneous application of 20 μL of a 1% OXA solution (Gaspari and Katz, Current Protocols in immunology, John Wiley & Sons (Hoboken, N.J., 2003)). 2,4-Dinitro-1-fluambenzene (DNFB) sensitization was accomplished by the application of 0.5% of the chemical dissolved in 4:1 acetone/olive oil onto the shaved abdomen (days 0 and 1). On day 5, mice were challenged by means of epicutaneous application of 0.2% DNFB on both ears. Ear thickness was measured before and 24 and 48 hours after challenge by using a dial thickness gauge (Mitutoyo, Japan). Mice were killed 48 hours after challenge, and ear tissues were removed for RNA extraction and cytokine message expression, as well as for hematoxylin and eosin staining.
(§3) Total RNA was extracted from DCs or tissues by using the RNeasy Mini Kit (Qiagen, Inc, Valencia, Calif.), according to the manufacturer's recommendations. Contaminating DNA was removed with a DNA-free kit (Ambion, Inc, Austin, Tex.). Total RNA was spectrophotometrically quantitated. A 1 μg RNA sample was reverse transcribed by using the iScriptTMcDNA Synthesis Kit (Bio-Rad Laboratories, Hercules, Calif.). The cDNA templates were stored at −40° C.
(§4) PCR was carried out with an iQTM SYBR Green Supermix (Bio-Rad Laboratories) by using an iCycler (Bio-Rad Laboratories), according to the manufacturer's instructions. The sequences for the primers for IFN-γ, IL-4, T-bet, heme oxygenase 1, Nrf2, NQO1, glutathione S-transferase, GCLS, GPx, and β-actin are summarized in Table 1. The final PCR mixture contained 1 μL of cDNA template and 400 nM of the forward and reverse primers in a final volume of 25 μL. […]
(§5) IFN-γ and IL-4 message levels were measured in the ear tissues that were taken 48 hours after challenge to determine whether the induction of the CHS response is accompanied by polarized T cell differentiation.

[9] = test system: IL-4 mRNA; settings: old mice; SFN gavage; 48 hours after DNFB challenge
Method: as §2, §3, §4, §5

[10] = test system: T-bet mRNA; settings: old versus young sensitized animals; SFN gavage; DNFB challenge
Method: as §2, §3, §4, §5

[11] = test system: GATA-3; settings: SFN gavage; DNFB challenge
Method: as §5

[12] = test system: p2Es (NQO1, glutathione S-transferase, γ-GCLS, and GPx) mRNA; settings: SFN administration versus livers of control animals
Method: (§6) SFN (9 μmol/d per mouse) in 0.2 mL, of corn oil was administered by means of gavage on consecutive days. The control group received corn oil alone. Pretreatment with SFN or corn oil commenced 5 days before and was carried through until the performance of the antigen challenge (i.e., 11 days total).
as §3
as §4, with “μL. Samples were run concurrently with a standard curve prepared from the PCR products. Serial dilutions were performed to obtain appropriate template concentrations.” for “μL.”

[13] = SFN administration by gavage
Method: as §1, §6

[14] = test system: NQO1 mRNA; settings: BM-DCs from old animals; SFN 5 μmol/L for 24 hours; P<0.001
Method: (§7) FIG. 9. […] A. Total RNA was extracted from CD11c^+ BM-DCs to perform real-time PCR for p2E.
as §3
(§8) PCR was carried out with an iQTM SYBR Green Supermix (Bio-Rad Laboratories) by using an iCycler (Bio-Rad Laboratories), according to the manufacturer's instructions. The sequences for the primers for IFN-γ, IL-4, T-bet, heme oxygenase 1, Nrf2, NQO1, glutathione S-transferase, GCLS, GPx, and β-actin are summarized in Table 1. The final PCR mixture contained 1 μL of cDNA template and 400 nM of the forward and reverse primers in a final volume of 25 μL. Samples were run concurrently with a standard curve prepared from the PCR products. Serial dilutions were performed to obtain appropriate template concentrations. B-Actin was used as a reference gene for the recovery of RNA, as well as reverse transcription efficiency. Melting curve analysis was used to confirm specific replicon formation.

[15] = test system: heme oxygenase 1 mRNA; settings: BM-DCs from old animals; SFN 5 μmol/L for 24 hours; P<0.05
Method: as §7, §3, §8

[16] = test system: γ-GCLS mRNA; settings: BM-DCs from old animals; SFN 5 μmol/L for 24 hours; P<0.05
Method: as §7, §3, §8

[17] = test system: Nrf2-mediated phase II enzyme (p2E) gene expression; settings: absent in Nrf2-deficient animals; recent studies; cited from earlier work

SMILES: CC(=O)N[C@@H](CS)C(=O)O [NAC, N-acetylcysteine]
- CHS response in recipients of DNBS-pulsed DCs from old animals ([1]; ex vivo NAC treatment of BM-DCs (20 mM for 1 hour), washed): restored the CHS response; also recorded: increases the CHS response; also recorded: reverses the age-related decrease in the CHS response
- ear thickness [2]: dose-dependent increase
- TNCB response [3]: reduced the TNCB response
- binding of the contact sensitizer TNCB to cellular proteins [4]: block the binding
- increase in cellular thiol content (MBB staining) ([5]; BM-DCs, NAC exposure (FIG. 8: 20 mmol/L for 24 hours)): 25%

SMILES: O=C(O)CCCCC1CCSS1 (stereo not drawn) [α-lipoic acid]
- nuclear Nrf2 levels, γ-CLC expression and GSH production [6]: increase nuclear Nrf2 levels in parallel with increased γ-CLC expression and GSH production

- heme oxygenase 1 mRNA level [15]: significant upregulation
SMILES: C[S+]([O-])CCCCN=C=S (centres unmarked) [SFN, sulforaphane]
- ear-swelling response in nonsensitized (control) animals ([7]; nonsensitized control animals): no effect
- decrease in lymphocyte infiltration and intercellular edema in ear (hematoxylin and eosin) ([7]; old mice, ear histology 48 hours after challenge): could be reversed
- IFN-γ message level in ear tissue [8]: significantly increased
- IL-4 message level in ear tissue [9]: not significantly affected
- T-bet message level in ear tissue [10]: prevented this decrease to a significant degree
- expression of GATA-3 [11]: Neither aging nor SFN treatment had an effect
- p2E mRNA levels in liver (NQO1, glutathione S-transferase, γ-GCLS, GPx) [12]: message levels for 3 of the 4 genes were increased
- effects on overall well-being or body weight [13]: Neither the CHS procedure nor SFN administration had any effects
- CHS response in recipients of DNBS-pulsed DCs from old animals ([1]; ex vivo SFN treatment of BM-DCs (5 μM for 24 hours)): could restore the CHS response; also recorded: reverses the age-related decrease in the CHS response
- NQO1 mRNA level [14]: significant upregulation
- γ-GCLS mRNA level [16]: significant upregulation
- Nrf2-mediated phase II enzyme (p2E) gene expression [17]: significantly activates
- increase in cellular thiol levels (MBB staining) ([5]; BM-DCs from old animals, SFN 5 μmol/L for 24 hours): 15%
